Experimental data published in BindingDB's records for doi:10.1016/j.bmcl.2007.02.059 (Johnson & Johnson Pharmaceutical Research & Development, 2007).

Columns and labels:
[1] = Inhibition of human Rsk3
[2] = Inhibition of human Rsk2

IC50 [1]: 48 nM | IC50 [2]: 850 nM
Compound: CN(C)c1nc2ccc1CCCn1cc(c3ccccc31)C1=C(C(=O)NC1=O)c1cn(c3ccccc13)CC2
